{
  "source": "paper PMC10156683",
  "about": "“Male-selective effects of oxytocin agonism on alcohol intake: behavioral assessment in socially housed prairie voles and involvement of RAGE” (Neuropsychopharmacology, 2022)",
  "key": {"RAGE": {"tested_on": "RAGE", "assay": "Involvement of RAGE in brain penetration of d5 OXT: pre-treatment with RAGE antagonist FPS ZM1", "type": "in vivo, prairie vole (Microtus ochrogaster)", "text": "Following confirmation of the presence of RAGE mRNA and protein in prairie vole brain using RT-PCR and immunohistochemistry as described in the Supplementary Material, we tested whether IN or IP administered OXT penetrates into the brain and whether the RAGE protein is involved in this transport. Adult female and male prairie voles were assigned to control or treatment groups. Animals in the treatment group received the high affinity, BBB-permeant RAGE antagonist FPS ZM1 and control animals received saline 30 min prior to administration of oxytocin-(leucine-5,5,5-d3, glycine-2,2-d2) trifluoroacetate salt (d5 OXT) in saline to all animals. […]\n(§1) Alcohol and water intake were calculated for each animal as liquid consumed in grams (adjusted per density of 5% (v/v) ethanol and water) over body weight in kilograms. Alcohol and water drink size were determined by the volume of liquid consumed (ml) per consumption event. Consumptive visits were defined as channel entries during which a consumption event was recorded. […] Cumulative measures were analyzed at hourly intervals for 24 h post-treatment. […]\nIn 5 (1 control female, 2 control males, 1 pre-treated female and 1 pre-treated male) out of 57 cases levels were above or below 2 standard deviations from the mean and thus removed from analysis. In cases when no d5 OXT was detected, the concentration was entered as zero (17 total). […]"}, "AVPR1a": {"tested_on": "AVPR1a", "conditions": "cited from earlier work", "text": "Determining the behavioral and molecular effects of OXT on alcohol consumption is important for translational application and optimization of treatment efficacy. […] Given OXT’s low brain-penetrance and potentially non-specific effects on the related vasopressin receptor AVPR1a, development of an OXTR receptor agonist with a more desirable pharmacokinetic profile could increase the tran ..."}, "prairie voles [1]": {"tested_on": "prairie voles", "assay": "Continuous-access two-bottle choice (CA-2BC) alcohol drinking in socially housed prairie voles, HM2 cages, mixed-cage design", "type": "in vivo, prairie vole (Microtus ochrogaster)", "method": "For experiments examining the effects of pharmacologically targeting the OXT system on alcohol (and water) consumption, adult female and male prairie voles were given ad libitum access to alcohol in a CA-2BC design for 6 days. […] Fluid consumption was measured before and after treatment (IN OXT or IP LIT-001, or vehicle) using the Herdsman-2 (HM2; MBrose Faaborg, Denmark) cage system. The HM2 system is designed to allow socially housed animals unrestrained access to and interaction with other animals in the cage, while accounting for precise, individualized measures of fluid intake through the combined use of balances and radiofrequency identification (RFID) implants. This cage system has been previously utilized to assess potential pharmacotherapies for AUD in rodents. Further details are provided in the Supplementary Material (Supplementary Fig. S1). Consistent with previous studies, a mixed-cage design (treated and control animals in the same cage) was used.\nOXT acetate salt (Bachem, Torrence, CA, USA) was dissolved in normal saline to doses of 5.0 mg/kg and 10.0 mg/kg (25 µl, IN). LIT-001 was synthesized in the laboratory of Dr. Marcel Hibert. It was dissolved in 5% dimethyl sulfoxide in saline and administered at a dose of 10 mg/kg (IP). FPS ZM1 (1 mg/kg, IP; Tocris, Minneapolis, MN, USA) and d5 OXT (3 µg/25 µl, IN or 12 µg/0.1 ml, IP; Sigma-Aldrich, St. Louis, MO, USA) were dissolved in saline. The d5 OXT dose was based on previous assessments of OXT penetrance.\nAlcohol and water intake were calculated for each animal as liquid consumed in grams (adjusted per density of 5% (v/v) ethanol and water) over body weight in kilograms. Alcohol and water drink size were determined by the volume of liquid consumed (ml) per consumption event. Consumptive visits were defined as channel entries during which a consumption event was recorded. […] Cumulative measures were analyzed at hourly intervals for 24 h post-treatment. Concentrations of d5 OXT (pg/mg of tissue) were obtained through LC-MS/MS analysis on a Shimadzu Nexera-LCMS-8060 instrument using a previously established method. Data analysis was performed in IBM SPSS Statistics 27 and visualization was performed in Prism 9.3.1. The distribution of many of these measures was not normal. Therefore, non-parametric statistics were applied, including Kruskal–Wallis test and post hoc analyses with Mann–Whitney U-test. While Results below only include p values, detailed statistical analyses are presented in Supplementary Material Table S1.\nThe Herdsman-2 (HM2) system was used in the experiments measuring alcohol consumption. The HM2 cage system consists of Techniplast 1500U Eurostandard type IV S (48 x 37.5 x 21cm) rodent housing cages equipped with two (11cm) channels (front and back) on one side and stairs specially designed to accommodate prairie voles. Each channel leads to a bottle (one water, one 5% ethanol in water, v/v) below which is a precision balance with a catch tray for spillage- which is automatically deducted from consumption calculations. Breakage of the photobeam at the entrance of the channel triggers the RFID reader to register the animal. A consumption event is initiated when the animal touches the drinking spout and a change of weight of at least 0.02 g is detected; the starting weight is saved and ending weight is registered only after the system receives a stable reading for 5 s. A consumption event is ended 30s after the last touch of the drinking spout, regardless of whether the animal remains in the channel. The system collects a number of measures, including: weight of liquid consumed, number of channel entries and consumptive vs. non-nutritive visits (whether liquid is consumed or not). […]"}, "prairie voles [2]": {"tested_on": "prairie voles", "conditions": "both sexes, previous prairie vole study; cited from earlier work", "text": "Importantly, RAGE immunoreactivity was detected in the choroid plexus, hypothalamus and hippocampus, confirming expression in possible locations of central penetration. […] Studies in mice noted that the IN route of administration can result in hi ..."}, "[3]": {"conditions": "cited from earlier work", "text": "Determining the behavioral and molecular effects of OXT on alcohol consumption is important for translational application and optimization of treatment efficacy. […] While a statisti ..."}, "in vivo": {"assay": "in vivo", "parameters": "species or system prairie vole (Microtus ochrogaster)", "conditions": "for tissue level at time at 10 min: female", "text": "Following confirmation of the presence of RAGE mRNA and protein in prairie vole brain using RT-PCR and immunohistochemistry as described in the Supplementary Material, we tested whether IN or IP administered OXT penetrates into the brain and whether the RAGE protein is involved in this transport. Adult female and male prairie voles were assigned to control or treatment groups. Animals in the treatment group received the high affinity, BBB-permeant RAGE antagonist FPS ZM1 and control animals received saline 30 min prior to administration of oxytocin-(leucine-5,5,5-d3, glycine-2,2-d2) trifluoroacetate salt (d5 OXT) in saline to all animals. After 10 min, animals were deeply anaesthetized under 4% isoflurane and perfused with heparinized saline. […] Brains were extracted and snap-frozen in isopentane, then stored at −80 °C until prepared for analysis via LC-MS/MS (Supplementary Fig. S2).\nOXT acetate salt (Bachem, Torrence, CA, USA) was dissolved in normal saline to doses of 5.0 mg/kg and 10.0 mg/kg (25 µl, IN). LIT-001 was synthesized in the laboratory of Dr. Marcel Hibert. […]\nas §1\nAdult female and male prairie voles (75- 207d) were assigned to control (n =28; females = 14) or treatment (n = 29; females = 15) groups pseudo-randomly to ensure genetic diversity across groups. Whole brain tissue samples (~650 mg) were homogenized, subjected to protein precipitation and solid-phase extraction, and analyzed for concentrations (pg/mg) of exogenous oxytocin-(leucine-5,5,5-d3, glycine-2,2-d2) trifluoroacetate salt (d5 OXT) using a Shimadzu Nexera-LCMS-8060 (Shimadzu, Kyoto, Japan) liquid chromatograph-triple quadrupole mass spectrometer. […]"}},
  "note": "Where a name gives a salt, the structure may show the parent alone.",
  "data": [
    {"compound": "O=C(c1ccc(Cl)cc1)N(Cc1ccccc1)C1CCCCC1", "note": "[FPS ZM1]", "values": [
      {"measurement": "Effect of antagonist pre-treatment on brain d5 OXT levels after IP d5 OXT (in words)", "setting": "RAGE; female or male prairie voles, FPS ZM1 1 mg/kg IP 30 min before IP d5 OXT, control vs antagonist pre-treated, ps > 0.21", "value": "No significant differences"},
      {"measurement": "Effect of antagonist pre-treatment on brain d5 OXT levels after IN d5 OXT (in words)", "setting": "RAGE; male prairie voles, FPS ZM1 1 mg/kg IP 30 min before IN d5 OXT, vs vehicle pre-treated controls, p = 0.02", "value": "significantly decreased"}
    ]},
    {"compound": "TC-OT-39", "values": [
      {"measurement": "Affinity for the AVPR1a (in words)", "setting": "AVPR1a", "value": "moderate affinity"}
    ]},
    {"compound": "Cc1cc(C(=O)N2Cc3cnn(C)c3Nc3ccccc32)ccc1CNC(=O)N1CCN(Cc2cc(O)cc(O)c2)CC1", "note": "[WAY-267646]", "values": [
      {"measurement": "Affinity for the AVPR1a (in words)", "setting": "AVPR1a", "value": "moderate affinity"}
    ]},
    {"compound": "Oxytocin [OXT]", "values": [
      {"measurement": "Water intake or drink size 3 h post-treatment (in words)", "setting": "prairie voles [1]; IN OXT 5 and 10 mg/kg, 3 h post-treatment", "value": "No effect"},
      {"measurement": "Alcohol or water consumptive visits or non-nutritive visits (in words)", "setting": "prairie voles [1]; IN OXT 5 and 10 mg/kg, females and males, any time point, p > 0.94", "value": "No significant differences"},
      {"measurement": "Alcohol intake at 2 h post-treatment (in words)", "setting": "prairie voles [1]; both doses of IN OXT (5 and 10 mg/kg), 2 h post-treatment, Kruskal-Wallis p = 0.02", "value": "decreased alcohol intake"},
      {"measurement": "Effect on alcohol consumption in females (in words)", "setting": "prairie voles [1]; female prairie voles, IN OXT 5 and 10 mg/kg", "value": "without affecting alcohol consumption"},
      {"measurement": "Alcohol intake vs control counterparts (in words)", "setting": "prairie voles [1]; male prairie voles, 5 mg/kg and 10 mg/kg IN OXT, 3 h post-treatment, Mann-Whitney p = 0.01 and p = 0.02", "value": "lower alcohol intake"},
      {"measurement": "Alcohol drink size vs control counterparts (in words)", "setting": "prairie voles [1]; male prairie voles, 5 mg/kg and 10 mg/kg IN OXT, 3 h post-treatment, p = 0.01 and p = 0.02", "value": "smaller drink sizes"},
      {"measurement": "Water intake at 2 h post-treatment (in words)", "setting": "prairie voles [1]; male prairie voles, 10 mg/kg IN OXT, 2 h post-treatment, p = 0.04", "value": "increased water intake"},
      {"measurement": "Alcohol and water intake after IP OXT (in words)", "setting": "prairie voles [2]", "value": "decreased alcohol and water intake"},
      {"measurement": "Bioavailability (in words)", "setting": "[3]", "value": "low bioavailability"},
      {"measurement": "Metabolic stability (in words)", "setting": "[3]", "value": "metabolically unstable"},
      {"measurement": "Oral availability (in words)", "setting": "[3]", "value": "not orally available"},
      {"measurement": "Half-life", "setting": "[3]; estimated", "value": "tens of minutes"}
    ]},
    {"compound": "CC[C@H](C)[C@@H]1NC(=O)[C@H](Cc2ccc(O)cc2)NC(=O)[C@@H](N)CSSC[C@@H](C(=O)N2CCC[C@H]2C(=O)N[C@@H](CC(C)C)C(=O)NCC(N)=O)NC(=O)[C@H](CC(N)=O)NC(=O)[C@H](CCC(N)=O)NC1=O", "note": "[d5 OXT, oxytocin-(leucine-5,5,5-d3, glycine-2,2-d2) trifluoroacetate salt]", "values": [
      {"measurement": "tissue level at time at 10 min", "setting": "in vivo; 3 ug", "value": 0.006, "unit": "ng/g"},
      {"measurement": "tissue level at time at 10 min", "setting": "in vivo; ip, 12 ug", "value": 0.05, "unit": "ng/g"},
      {"measurement": "Presence of d5 OXT in brain (in words)", "setting": "in vivo; ip", "value": "detected"}
    ]}
  ]
}
